± gives the uncertainty stated by the source.
Experiment: xn = mol fraction of the nth substance listed

COCCOCCOC + CC(C)CC(C)(C)C
viscosity [mPa·s], 101.33 kPa
Settings	x1 = 0.0931	x1 = 0.1978	x1 = 0.2916	x1 = 0.4016	x1 = 0.4538	x1 = 0.5881	x1 = 0.687	x1 = 0.7926	x1 = 0.8997
298.15 K	0.49 ± 0.014	0.511 ± 0.014	0.538 ± 0.015	0.58 ± 0.016	0.602 ± 0.016	0.668 ± 0.018	0.726 ± 0.019	0.808 ± 0.021	0.887 ± 0.022
303.15 K	0.46 ± 0.013	0.481 ± 0.014	0.507 ± 0.014	0.545 ± 0.015	0.564 ± 0.015	0.624 ± 0.017	0.677 ± 0.018	0.741 ± 0.019	0.821 ± 0.021
308.15 K	0.435 ± 0.013	0.455 ± 0.013	0.478 ± 0.013	0.512 ± 0.014	0.529 ± 0.015	0.584 ± 0.016	0.632 ± 0.017	0.69 ± 0.018	0.762 ± 0.02
313.15 K	0.413 ± 0.012	0.43 ± 0.012	0.451 ± 0.013	0.482 ± 0.014	0.5 ± 0.014	0.548 ± 0.015	0.592 ± 0.016	0.647 ± 0.017	0.712 ± 0.019
318.15 K	0.389 ± 0.012	0.405 ± 0.012	0.425 ± 0.012	0.453 ± 0.013	0.468 ± 0.013	0.512 ± 0.014	0.553 ± 0.015	0.601 ± 0.016	–

COCCOCCOC + CCCCCCCCC
viscosity [mPa·s], 101.33 kPa
Settings	x1 = 0.0991	x1 = 0.2003	x1 = 0.3005	x1 = 0.3982	x1 = 0.5023	x1 = 0.5963	x1 = 0.6999	x1 = 0.7997	x1 = 0.897
298.15 K	0.642 ± 0.017	0.64 ± 0.017	0.665 ± 0.018	0.691 ± 0.018	0.712 ± 0.019	0.747 ± 0.019	0.794 ± 0.02	0.836 ± 0.021	0.898 ± 0.023
308.15 K	0.559 ± 0.015	0.56 ± 0.015	0.579 ± 0.016	0.6 ± 0.016	0.618 ± 0.017	0.647 ± 0.017	0.685 ± 0.018	0.718 ± 0.019	0.768 ± 0.02
318.15 K	0.49 ± 0.014	0.49 ± 0.014	0.507 ± 0.014	0.523 ± 0.014	0.538 ± 0.015	0.561 ± 0.015	0.591 ± 0.016	0.62 ± 0.017	0.662 ± 0.018

CC[n+]1ccccc1.N#C[N-]C#N + CCCO
Settings	viscosity [mPa·s]
313.15 K, 100 kPa, x1 = 0.8905	9.945 ± 1

Oc1ccccc1 + O
viscosity [mPa·s], 101 kPa
Settings	293.15 K	303.15 K	313.15 K	323.15 K
x1 = 0.004	1.056 ± 0.01	0.8342 ± 0.0082	0.6816 ± 0.0066	0.5696 ± 0.0056
x1 = 0.008	1.107 ± 0.011	0.8703 ± 0.0086	0.7185 ± 0.0071	0.5898 ± 0.0059
x1 = 0.01	1.16 ± 0.011	0.9071 ± 0.0091	0.737 ± 0.0074	0.611 ± 0.0062
x1 = 0.02	1.215 ± 0.012	0.9485 ± 0.0097	0.7664 ± 0.0078	0.634 ± 0.0065
x1 = 0.021	–	–	–	0.66 ± 0.048
x1 = 0.31	–	2.972 ± 0.06	2.253 ± 0.046	1.775 ± 0.036
x1 = 0.36	4.372 ± 0.093	3.153 ± 0.068	2.383 ± 0.051	1.858 ± 0.04
x1 = 0.43	4.731 ± 0.11	3.393 ± 0.077	2.553 ± 0.057	1.981 ± 0.044
x1 = 0.52	5.273 ± 0.12	3.742 ± 0.089	2.792 ± 0.066	2.164 ± 0.051
x1 = 0.63	6.146 ± 0.15	4.288 ± 0.11	3.161 ± 0.078	2.42 ± 0.059
x1 = 0.78	–	–	3.77 ± 0.095	–

COCCOCCOC + CCCCO
viscosity [mPa·s], 101 kPa
Settings	x1 = 0.1051	x1 = 0.2018	x1 = 0.3019	x1 = 0.4029	x1 = 0.5049	x1 = 0.6017	x1 = 0.7049	x1 = 0.7983	x1 = 0.9023
298.15 K	1.866 ± 0.023	1.542 ± 0.019	1.304 ± 0.016	1.178 ± 0.015	1.103 ± 0.014	1.048 ± 0.013	1.019 ± 0.013	0.998 ± 0.013	0.989 ± 0.013
308.15 K	1.48 ± 0.018	1.252 ± 0.016	1.074 ± 0.014	0.983 ± 0.013	0.924 ± 0.012	0.883 ± 0.011	0.863 ± 0.011	0.849 ± 0.011	0.842 ± 0.011
318.15 K	1.186 ± 0.015	1.028 ± 0.013	0.906 ± 0.012	0.827 ± 0.011	0.782 ± 0.01	0.762 ± 0.01	0.74 ± 0.01	0.73 ± 0.01	0.723 ± 0.01

Oc1ccccc1 + CS(C)=O
viscosity [mPa·s], 101 kPa
Settings	x2 = 0.2	x2 = 0.3	x2 = 0.4	x2 = 0.5	x2 = 0.6	x2 = 0.7	x2 = 0.8	x2 = 0.9
298.15 K	8.913 ± 0.093	7.767 ± 0.079	6.467 ± 0.065	5.173 ± 0.053	4.111 ± 0.042	3.282 ± 0.033	2.726 ± 0.027	2.308 ± 0.022
308.15 K	5.87 ± 0.068	5.328 ± 0.06	4.618 ± 0.05	3.826 ± 0.04	3.127 ± 0.032	2.579 ± 0.026	2.192 ± 0.022	1.902 ± 0.019
318.15 K	4.15 ± 0.05	3.888 ± 0.045	3.486 ± 0.038	2.977 ± 0.031	2.489 ± 0.025	2.09 ± 0.021	1.794 ± 0.018	1.577 ± 0.016

Oc1ccccc1 + c1ccncc1
viscosity [mPa·s], 101 kPa
Settings	293.15 K	303.15 K	313.15 K
x1 = 0.0707	1.109 ± 0.011	0.94 ± 0.009	0.828 ± 0.008
x1 = 0.1391	1.321 ± 0.013	1.106 ± 0.011	0.965 ± 0.009
x1 = 0.213	1.597 ± 0.016	1.339 ± 0.013	1.152 ± 0.011
x1 = 0.2888	2.01 ± 0.02	1.634 ± 0.016	1.389 ± 0.013
x1 = 0.349	2.411 ± 0.024	1.963 ± 0.019	1.631 ± 0.016
x1 = 0.4283	3.215 ± 0.032	2.515 ± 0.025	2.042 ± 0.02
x1 = 0.5063	4.37 ± 0.045	3.245 ± 0.034	2.56 ± 0.025
x1 = 0.5971	5.945 ± 0.062	4.29 ± 0.05	3.245 ± 0.032
x1 = 0.6675	7.48 ± 0.08	5.17 ± 0.06	3.8 ± 0.04
x1 = 0.7481	9.07 ± 0.11	6.04 ± 0.07	4.305 ± 0.043
x1 = 0.8284	10.04 ± 0.1	6.625 ± 0.077	4.59 ± 0.05
x1 = 0.9114	10.72 ± 0.15	6.915 ± 0.082	4.705 ± 0.049

CC(C)Cc1ccc(C(C)C(=O)O)cc1 (stereo not given) + CCCO
viscosity [mPa·s], 100 kPa
Settings	x1 = 0.00242	x1 = 0.00365	x1 = 0.00483	x1 = 0.006021	x1 = 0.007225	x1 = 0.0096	x1 = 0.012
298.15 K	1.95 ± 0.079	1.956 ± 0.08	1.963 ± 0.08	1.971 ± 0.08	1.979 ± 0.081	1.995 ± 0.081	2.014 ± 0.082
308.15 K	1.529 ± 0.062	1.538 ± 0.063	1.548 ± 0.063	1.56 ± 0.064	1.575 ± 0.064	1.605 ± 0.065	1.639 ± 0.067
